Experimental data as given in the NIST ThermoML archive (doi:10.1021/je8006937).
Several values for one entry are separate records, joined by “and”; a condition that tells them apart may be missing. Identical values can stand only once. ± gives the expanded uncertainty stated by the source.

Conditions: Liquid, Pendant drop shape

CCOCCOCCOS(=O)(=O)[O-].CCn1cc[n+](C)c1 [1-ethyl-3-methylimidazolium 2-(2-ethoxyethoxy)ethylsulfate] + O=C=O
Conditions	interfacial tension
280.25 K, 100 kPa	36.7 ± 0.2 mN/m and 37.3 ± 0.2 mN/m
280.26 K, 1170 kPa	30.3 ± 0.2 mN/m
280.26 K, 2340 kPa	22.6 ± 0.1 mN/m
280.26 K, 3340 kPa	15.5 ± 0.6 mN/m
280.28 K, 3950 kPa	9.8 ± 0.7 mN/m
280.4 K, 4240 kPa	6.3 ± 0.4 mN/m
280.46 K, 5230 kPa	6.6 ± 0.5 mN/m
280.46 K, 7030 kPa	6 ± 0.1 mN/m
280.49 K, 8960 kPa	5.8 ± 0.1 mN/m
280.51 K, 10860 kPa	5.4 ± 0.1 mN/m
280.53 K, 12970 kPa	5.4 ± 0.1 mN/m
280.54 K, 15110 kPa	5.1 ± 0.1 mN/m
280.55 K, 17290 kPa	5.1 ± 0.1 mN/m
280.58 K, 20670 kPa	4.7 ± 0.1 mN/m
299.4 K, 100 kPa	36.2 ± 0.2 mN/m
299.43 K, 4810 kPa	14.9 ± 0.3 mN/m
299.43 K, 14740 kPa	6.6 ± 0.1 mN/m
299.45 K, 16390 kPa	6.4 ± 0.1 mN/m
299.46 K, 17880 kPa	6.2 ± 0.1 mN/m
299.47 K, 6680 kPa	8.6 ± 0.2 mN/m
299.48 K, 20360 kPa	6 ± 0.1 mN/m
299.53 K, 10230 kPa	7.6 ± 0.1 mN/m
299.54 K, 12350 kPa	6.8 ± 0.1 mN/m
299.55 K, 8330 kPa	7.9 ± 0.1 mN/m
319.74 K, 2000 kPa	28.5 ± 0.2 mN/m
319.74 K, 3090 kPa	25.1 ± 0.3 mN/m
319.74 K, 4040 kPa	22.2 ± 0.3 mN/m
319.75 K, 100 kPa	35.5 ± 0.2 mN/m and 35.4 ± 0.2 mN/m
319.75 K, 1010 kPa	31.5 ± 0.2 mN/m
319.75 K, 5010 kPa	19.4 ± 0.3 mN/m
319.76 K, 5950 kPa	16.5 ± 0.3 mN/m
319.76 K, 8950 kPa	7.6 ± 0.2 mN/m
319.78 K, 7260 kPa	13.1 ± 0.3 mN/m
319.87 K, 10740 kPa	9.8 ± 0.1 mN/m
319.87 K, 12430 kPa	8.9 ± 0.1 mN/m
319.95 K, 14470 kPa	8.4 ± 0.1 mN/m
319.98 K, 17410 kPa	7.8 ± 0.1 mN/m
320.03 K, 20790 kPa	7.7 ± 0.1 mN/m

CCCCn1cc[n+](C)c1.CCOCCOCCOS(=O)(=O)[O-] [1-butyl-3-methylimidazolium 2-(2-ethoxyethoxy)ethylsulfate] + O=C=O
Conditions	interfacial tension [mN/m]
281.3 K, 1960 kPa	23 ± 0.1
281.3 K, 3680 kPa	10.8 ± 0.1
281.31 K, 100 kPa	34.5 ± 0.2
281.31 K, 3150 kPa	15.1 ± 0.1
281.32 K, 1110 kPa	28.2 ± 0.2
281.48 K, 4300 kPa	4.6 ± 0.1
281.58 K, 5100 kPa	4.5 ± 0.1
281.58 K, 6970 kPa	4.5 ± 0.1
281.61 K, 9890 kPa	4 ± 0.1
281.61 K, 13700 kPa	3.8 ± 0.1
281.63 K, 17000 kPa	3.7 ± 0.1
281.63 K, 19930 kPa	3.5 ± 0.1
281.69 K, 100 kPa	34.3 ± 0.2
281.69 K, 1490 kPa	25.4 ± 0.1
281.7 K, 600 kPa	30.6 ± 0.2
281.7 K, 2830 kPa	17.3 ± 0.1
281.7 K, 4160 kPa	6.5 ± 0.1
281.84 K, 4340 kPa	4.9 ± 0.1
281.86 K, 12130 kPa	4.4 ± 0.1
281.87 K, 5900 kPa	4.7 ± 0.1
281.91 K, 18060 kPa	3.7 ± 0.1
295.14 K, 100 kPa	34 ± 0.2
295.2 K, 100 kPa	34.2 ± 0.2
295.3 K, 1030 kPa	29.3 ± 0.2
295.39 K, 1980 kPa	25 ± 0.1
295.5 K, 3350 kPa	18.8 ± 0.1
295.8 K, 3950 kPa	16.3 ± 0.1
296.03 K, 4960 kPa	12.4 ± 0.1
296.29 K, 6150 kPa	12.8 ± 0.1
296.31 K, 6630 kPa	5.8 ± 0.1
296.35 K, 8190 kPa	5.6 ± 0.1
296.42 K, 10120 kPa	5.2 ± 0.1
296.5 K, 14370 kPa	4.8 ± 0.1
296.53 K, 17640 kPa	4.5 ± 0.1
319.53 K, 100 kPa	33.3 ± 0.2
319.57 K, 2130 kPa	27.7 ± 0.1
319.58 K, 1030 kPa	30.4 ± 0.2
319.58 K, 3610 kPa	23.6 ± 0.1
319.59 K, 5010 kPa	19.5 ± 0.1
319.6 K, 6190 kPa	16.4 ± 0.1
319.63 K, 7090 kPa	14 ± 0.1
319.69 K, 8100 kPa	12.3 ± 0.1
319.71 K, 9070 kPa	7.7 ± 0.1
319.78 K, 10070 kPa	7.9 ± 0.1
319.78 K, 11080 kPa	8 ± 0.1
319.79 K, 11720 kPa	7.9 ± 0.1
319.85 K, 14840 kPa	7.6 ± 0.1
319.91 K, 17840 kPa	7.1 ± 0.1
319.94 K, 20870 kPa	6.7 ± 0.1
